Data as given in paper PMC3626541, “A first in human, safety, pharmacokinetics, and clinical activity phase I study of once weekly administration of the Hsp90 inhibitor ganetespib (STA-9090) in patients with solid malignancies” (BMC Cancer, 2013).

System: patients with advanced solid tumors
Test: Safety: adverse events (NCI CTCAE v3.0), ECG
Assay type: in vivo, human
Description: Patients’ demographics and medical history were recorded at baseline. Physical examination and PS were assessed at baseline and on Day 1 of each cycle. Adverse events (AEs), vital signs, hematology and chemistry values, and creatinine clearance were assessed at baseline and weekly during treatment. Toxicity was graded using National Cancer Institute Common Terminology Criteria for Adverse Events (NCI CTCAE), version 3.0. An electrocardiogram (ECG) was performed at baseline, before and after treatment on Days 1 and 15 of Cycles 1 and 2, and on Day 15 of even-numbered cycles thereafter. CT scans were done at baseline and every 8 weeks thereafter. Tumor response was assessed using Response Evaluation Criteria in Solid Tumors (RECIST, v1.0), with confirmation of responses performed at least 4 weeks later.

CC(C)c1cc(-c2n[nH]c(=O)n2-c2ccc3c(ccn3C)c2)c(O)cc1O [Ganetespib, 5-[2,4-dihydroxy-5-(1 methyl-ethyl)phenyl]-2,4 dihydro-4-(1-methyl-1H indol-5 yl)-3H-1,2,4 triazole-3-one]
ALT elevation, CTCAE Grade 3 and 4 AE, Number (%) of patients (259 mg/m^2, n = 6): 0 n (%)
AST elevated, AE of any grade, Number (%) of patients (259 mg/m^2, n = 6): 0 n (%)
Abdominal distension, AE of any grade, Number (%) of patients (259 mg/m^2, n = 6): 0 n (%)
Abdominal pain, AE of any grade, Number (%) of patients (259 mg/m^2, n = 6): 1 (16.7) n (%)
Abdominal pain, serious adverse events, Number (%) of patients (259 mg/m^2, n = 6): 1 (16.7) n (%)
Anemia, AE of any grade, Number (%) of patients (259 mg/m^2, n = 6): 0 n (%)
Any event, AE of any grade, Number (%) of patients (259 mg/m^2, n = 6): 6 (100) n (%)
Any event, CTCAE Grade 3 and 4 AE, Number (%) of patients (259 mg/m^2, n = 6): 5 (83.3) n (%)
Any event, serious adverse events, Number (%) of patients (259 mg/m^2, n = 6): 3 (50) n (%)
Arthralgia, CTCAE Grade 3 and 4 AE, Number (%) of patients (259 mg/m^2, n = 6): 1 (16.7) n (%)
Asthenia, AE of any grade, Number (%) of patients (259 mg/m^2, n = 6): 2 (33.3) n (%)
Asthenia, CTCAE Grade 3 and 4 AE, Number (%) of patients (259 mg/m^2, n = 6): 2 (33.3) n (%)
Asthenia, serious adverse events, Number (%) of patients (259 mg/m^2, n = 6): 1 (16.7) n (%)
Back pain, AE of any grade, Number (%) of patients (259 mg/m^2, n = 6): 2 (33.3) n (%)
Constipation, AE of any grade, Number (%) of patients (259 mg/m^2, n = 6): 1 (16.7) n (%)
Decreased appetite, AE of any grade, Number (%) of patients (259 mg/m^2, n = 6): 1 (16.7) n (%)
Dehydration, AE of any grade, Number (%) of patients (259 mg/m^2, n = 6): 3 (50) n (%)
Dehydration, CTCAE Grade 3 and 4 AE, Number (%) of patients (259 mg/m^2, n = 6): 1 (16.7) n (%)
Dehydration, serious adverse events, Number (%) of patients (259 mg/m^2, n = 6): 1 (16.7) n (%)
Diarrhea, AE of any grade, Number (%) of patients (259 mg/m^2, n = 6): 6 (100) n (%)
Diarrhea, CTCAE Grade 3 and 4 AE, Number (%) of patients (259 mg/m^2, n = 6): 1 (16.7) n (%)
Dizziness, AE of any grade, Number (%) of patients (259 mg/m^2, n = 6): 2 (33.3) n (%)
Dry mouth, AE of any grade, Number (%) of patients (259 mg/m^2, n = 6): 1 (16.7) n (%)
Dyspnea, AE of any grade, Number (%) of patients (259 mg/m^2, n = 6): 1 (16.7) n (%)
Extremity pain, AE of any grade, Number (%) of patients (259 mg/m^2, n = 6): 1 (16.7) n (%)
Fatigue, AE of any grade, Number (%) of patients (259 mg/m^2, n = 6): 5 (83.3) n (%)
Fatigue, CTCAE Grade 3 and 4 AE, Number (%) of patients (259 mg/m^2, n = 6): 1 (16.7) n (%)
Headache, AE of any grade, Number (%) of patients (259 mg/m^2, n = 6): 1 (16.7) n (%)
Hyperbilirubinemia, CTCAE Grade 3 and 4 AE, Number (%) of patients (259 mg/m^2, n = 6): 0 n (%)
Hypokalemia, AE of any grade, Number (%) of patients (259 mg/m^2, n = 6): 1 (16.7) n (%)
Hypokalemia, CTCAE Grade 3 and 4 AE, Number (%) of patients (259 mg/m^2, n = 6): 0 n (%)
Hyponatremia, CTCAE Grade 3 and 4 AE, Number (%) of patients (259 mg/m^2, n = 6): 0 n (%)
Hypophosphatemia, AE of any grade, Number (%) of patients (259 mg/m^2, n = 6): 0 n (%)
Hypophosphatemia, CTCAE Grade 3 and 4 AE, Number (%) of patients (259 mg/m^2, n = 6): 0 n (%)
Insomnia, AE of any grade, Number (%) of patients (259 mg/m^2, n = 6): 2 (33.3) n (%)
Musculoskeletal chest pain, AE of any grade, Number (%) of patients (259 mg/m^2, n = 6): 0 n (%)
Nausea, AE of any grade, Number (%) of patients (259 mg/m^2, n = 6): 4 (66.7) n (%)
Peripheral edema, AE of any grade, Number (%) of patients (259 mg/m^2, n = 6): 1 (16.7) n (%)
Pneumonia, serious adverse events, Number (%) of patients (259 mg/m^2, n = 6): 1 (16.7) n (%)
Rash, AE of any grade, Number (%) of patients (259 mg/m^2, n = 6): 1 (16.7) n (%)
Serum amylase elevated, CTCAE Grade 3 and 4 AE, Number (%) of patients (259 mg/m^2, n = 6): 0 n (%)
Spinal cord compression, CTCAE Grade 3 and 4 AE, Number (%) of patients (259 mg/m^2, n = 6): 0 n (%)
Urinary tract infection, AE of any grade, Number (%) of patients (259 mg/m^2, n = 6): 3 (50) n (%)
Vomiting, AE of any grade, Number (%) of patients (259 mg/m^2, n = 6): 3 (50) n (%)
Weight decreased, AE of any grade, Number (%) of patients (259 mg/m^2, n = 6): 1 (16.7) n (%)
ALT elevated, AE of any grade, Number (%) of patients (259 mg/m^2, n = 6, first of two ALT elevated lines): 0 n (%)
ALT elevated, AE of any grade, Number (%) of patients (259 mg/m^2, n = 6, second of two ALT elevated lines): 0 n (%)
Patients with Grade 1 atrio-ventricular block (259 mg/m^2, history of coronary artery disease, possibly related to study drug): One patient
Incidence of diarrhea (259 mg/m^2 dose level): 100%
Incidence of fatigue (259 mg/m^2 dose level): 83.3%
ALT elevation, CTCAE Grade 3 and 4 AE, Number (%) of patients (7-114 mg/m^2, n = 25): 2 (8) n (%)
AST elevated, AE of any grade, Number (%) of patients (7-114 mg/m^2, n = 25): 5 (20) n (%)
Abdominal distension, AE of any grade, Number (%) of patients (7-114 mg/m^2, n = 25): 3 (12) n (%)
Abdominal pain, AE of any grade, Number (%) of patients (7-114 mg/m^2, n = 25): 9 (36) n (%)
Abdominal pain, serious adverse events, Number (%) of patients (7-114 mg/m^2, n = 25): 0 n (%)
Anemia, AE of any grade, Number (%) of patients (7-114 mg/m^2, n = 25): 11 (44) n (%)
